Consider 15 molecules from patent publication US9212164B2, “Pesticidal compositions and processes related thereto” (Dow AgroSciences LLC, priority 2012, dated 2015).

Type in all cases: in vivo
Assay [1] concerns Beet Armyworm (BAW) (Spodoptera exigua). Kind of assay: Bioassays on BAW, 128-well diet tray assay. The conditions noted are these: Spodoptera exigua, 168 h; 50 μg/cm^2 on artificial diet, second instar larvae, five to seven days, 25° C.; read-out: BAW Rating (percent mortality). In a few lines:
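Second-instar larvae (one to five per well) placed on artificial diet treated with 50 μg/cm^2 compound in 90:10 acetone-water, dried; eight wells per compound. Held at 25 °C, 14:10 light-dark, five to seven days; percent mortality per well averaged over the eight wells.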

Assay [2] concerns Cabbage Looper (CL) (Trichoplusia ni). Kind of assay: Bioassays on CL, 128-well diet tray assay. The conditions noted are these: 168 h, 50 μg/cm^2 on artificial diet, second instar larvae, five to seven days, 25° C., read-out: CL Rating (percent mortality). In a few lines: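 Second-instar larvae (one to five per well) placed on artificial diet treated with 50 μg/cm^2 compound in acetone-water and dried, eight wells per compound. Held at 25 °C, 14:10 light-dark, for five to seven days. Percent mortality scored per well and averaged.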

The test system of assay [3] is Green Peach Aphid (GPA) (Myzus persicae). Kind of assay: Bioassays on Green Peach Aphid, foliar spray on cabbage seedlings. To be noted: 200 ppm spray on cabbage seedlings, graded after three days. The source says: GPA is the most significant aphid pest of peach trees, causing decreased growth, shriveling of the leaves, and the death of various tissues. It is also hazardous because it acts as a vector for the transport of plant viruses, such as potato virus Y and potato leafroll virus to members of the nightshade/potato family Solanaceae, and various mosaic viruses to many other food crops. GPA attacks such plants as broccoli, burdock, cabbage, carrot, cauliflower, daikon, eggplant, green beans, lettuce, macadamia, papaya, peppers, sweet potatoes, tomatoes, watercress, and zucchini, among other plants. GPA also attacks many ornamental crops such as carnation, chrysanthemum, flowering white cabbage, poinsettia, and roses. GPA has developed resistance to many pesticides.
Certain molecules disclosed in this document were tested against GPA using procedures described in the following example. In the reporting of the results, the “GPA Rating Table” was used (See Table Section).
Cabbage seedlings grown in 3-inch pots, with 2-3 small (3-5 cm) true leaves, were used as test substrate. The seedlings were infested with 20-50 GPA (wingless adult and nymph stages) one day prior to chemical application. […] Percent Control was measured by using Abbott's correction formula (W. S. Abbott, “A Method of Computing the Effectiveness of an Insecticide” J. Econ. Entomol. 18 (1925), pp. 265-267) as follows. […]

A word on the mortality: it is the percentage killed. Take `O=C(NC1(C(=O)NCC(F)(F)F)CCC1)c1ccc(/C=C/C(c2cc(Cl)c(Cl)c(Cl)c2)C(F)(F)F)cc1Br` (centres unmarked) [Compound F5]: the mortality at 50 µg/cm2 in assay [1] and in assay [2] was 50 to 100% each time. Moreover, the “GPA Rating (corrected % control)” value in assay [3] is given as “B (More than 0 - Less than 80)”.

Consider `O=C(NC1(C(=O)NCC(F)(F)F)CC1)c1ccc(/C=C/C(c2cc(Cl)c(Cl)c(Cl)c2)C(F)(F)F)cc1I` (centres unmarked) [FA2], for which the mortality at 50 µg/cm2 in assay [1] and in assay [2] was 50 to 100% in each case. In addition, the “GPA Rating (corrected % control)” value in assay [3] is “B (More than 0 - Less than 80)”.

In the case of `O=C(NC1(C(=O)Nc2cccc(C(F)(F)F)c2)CC1)c1ccc(/C=C/C(c2cc(Cl)c(Cl)c(Cl)c2)C(F)(F)F)cc1Br` (centres unmarked) [FA37], the mortality at 50 µg/cm2 in assay [1] is 0 to 50%; in assay [2], 0%.

Consider `O=C(NC1(C(=O)Nc2cccc(Cl)c2)CC1)c1ccc(/C=C/C(c2cc(Cl)c(Cl)c(Cl)c2)C(F)(F)F)cc1Br` (centres unmarked) [FA38], for which the mortality at 50 µg/cm2 in assay [1] and in assay [2] was 0 to 50% in each case.

With `COc1ccccc1NC(=O)C1(NC(=O)c2ccc(/C=C/C(c3cc(Cl)c(Cl)c(Cl)c3)C(F)(F)F)cc2Br)CC1` (centres unmarked) [FA39], the mortality at 50 µg/cm2 in assay [1] and in assay [2] was 0% throughout.

Consider `COc1ccc(NC(=O)C2(NC(=O)c3ccc(/C=C/C(c4cc(Cl)c(Cl)c(Cl)c4)C(F)(F)F)cc3Br)CC2)cc1` (centres unmarked) [FA40], for which the mortality at 50 µg/cm2 in assay [1] and in assay [2] was 50 to 100% each time.

In the case of `COc1ccc(N(C)C(=O)C2(NC(=O)c3ccc(/C=C/C(c4cc(Cl)c(Cl)c(Cl)c4)C(F)(F)F)cc3Br)CC2)cc1` (centres unmarked) [FA41], the mortality at 50 µg/cm2 in assay [1] and in assay [2] was 50 to 100% each time.

Regarding `CCCN(C)C(=O)C1(NC(=O)c2ccc(/C=C/C(c3cc(Cl)c(Cl)c(Cl)c3)C(F)(F)F)cc2Br)CC1` (centres unmarked) [FA42], the mortality at 50 µg/cm2 in assay [1] and in assay [2] was 50 to 100% each time.

Take `COCCN(C)C(=O)C1(NC(=O)c2ccc(/C=C/C(c3cc(Cl)c(Cl)c(Cl)c3)C(F)(F)F)cc2Br)CC1` (centres unmarked) [FA43]: the mortality at 50 µg/cm2 in assay [1] and in assay [2] was 50 to 100% in each case.

In the case of `CN(Cc1ccc(Br)cc1)C(=O)C1(NC(=O)c2ccc(/C=C/C(c3cc(Cl)c(Cl)c(Cl)c3)C(F)(F)F)cc2Br)CC1` (centres unmarked) [FA44], the mortality at 50 µg/cm2 in assay [1] and in assay [2] was 50 to 100% in each case.

With `CCN(Cc1ccccc1)C(=O)C1(NC(=O)c2ccc(/C=C/C(c3cc(Cl)c(Cl)c(Cl)c3)C(F)(F)F)cc2Br)CC1` (centres unmarked) [FA45], the mortality at 50 µg/cm2 in assay [1] and in assay [2] was 50 to 100% each time.

Consider `COc1ccccc1CN(C)C(=O)C1(NC(=O)c2ccc(/C=C/C(c3cc(Cl)c(Cl)c(Cl)c3)C(F)(F)F)cc2Br)CC1` (centres unmarked) [FA46], for which the mortality at 50 µg/cm2 in assay [1] is 0 to 50%; in assay [2], 50 to 100%.

On to `O=C(NC1(C(=O)NC2CCCOC2)CC1)c1ccc(/C=C/C(c2cc(Cl)c(Cl)c(Cl)c2)C(F)(F)F)cc1Br` (centres unmarked) [FA47], for which the mortality at 50 µg/cm2 in assay [1] and in assay [2] was 50 to 100% each time.

For `Cn1nc(C(F)(F)F)cc1NC(=O)C1(NC(=O)c2ccc(/C=C/C(c3cc(Cl)c(Cl)c(Cl)c3)C(F)(F)F)cc2Br)CC1` (centres unmarked) [FA48], the mortality at 50 µg/cm2 in assay [1] and in assay [2] was 50 to 100% each time.

For `CON(CC(F)(F)F)C(=O)C1(NC(=O)c2ccc(/C=C/C(c3cc(Cl)c(Cl)c(Cl)c3)C(F)(F)F)cc2C(F)(F)F)CC1` (centres unmarked) [FA49, (E)-N-(1-(Methoxy(2,2,2-trifluoroethyl)carbamoyl)cyclopropyl)-4-(4,4,4-trifluoro-3-(3,4,5-trichlorophenyl)but-1-en-1-yl)-2-(trifluoromethyl)benzamide], the mortality at 50 µg/cm2 in assay [1] and in assay [2] was 50 to 100% throughout.
